Data reported in US20040122083A1, “Antitubulin assembly and cell growth inhibitor denominated "dioxostatin"” (priority 2003, published 2004).

Experiments:
[1] = tested on: KM20L2; assay: Human cancer cell line growth inhibition, Colon KM20L2; format: cell-based; conditions: Homo sapiens, KM-20L2
[2] = tested on: DU-145; assay: Human cancer cell line growth inhibition, Prostate DU-145; format: cell-based; conditions: Homo sapiens
[3] = tested on: BXPC-3; assay: Human cancer cell line growth inhibition, Pancreas-a BXPC-3; format: cell-based; conditions: Homo sapiens
[4] = tested on: OVCAR-3; assay: Human cancer cell line growth inhibition, Ovarian OVCAR-3; format: cell-based; conditions: Homo sapiens
[5] = tested on: NCI-H460; assay: Human cancer cell line growth inhibition, Lung-NSC NCI-H460; format: cell-based; conditions: Homo sapiens
[6] = Aqueous solubility; format: physicochemical
[7] = tested on: SF-295; assay: Human cancer cell line growth inhibition, CNS SF-295; format: cell-based; conditions: Homo sapiens
[8] = target: tubulin (Bos taurus, UniProt P81947+Q6B856); assay: Inhibition of [3H]colchicine binding to tubulin; conditions: read-out: % Inhibition Colchicine binding ± SD
Sequence of tubulin (Q6B856 whole entry): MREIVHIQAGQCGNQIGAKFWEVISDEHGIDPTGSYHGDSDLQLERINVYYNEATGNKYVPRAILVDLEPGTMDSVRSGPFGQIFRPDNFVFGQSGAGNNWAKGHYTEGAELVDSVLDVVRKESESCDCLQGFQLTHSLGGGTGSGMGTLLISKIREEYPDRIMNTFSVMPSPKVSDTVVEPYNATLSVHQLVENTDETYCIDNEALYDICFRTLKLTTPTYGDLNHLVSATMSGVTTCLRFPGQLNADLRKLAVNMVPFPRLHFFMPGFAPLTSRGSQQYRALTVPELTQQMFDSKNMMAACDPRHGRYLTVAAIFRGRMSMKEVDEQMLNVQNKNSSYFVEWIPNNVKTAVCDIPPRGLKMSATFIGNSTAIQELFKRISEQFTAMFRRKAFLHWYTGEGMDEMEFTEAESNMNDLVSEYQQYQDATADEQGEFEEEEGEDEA
Sequence of tubulin (P81947 whole entry): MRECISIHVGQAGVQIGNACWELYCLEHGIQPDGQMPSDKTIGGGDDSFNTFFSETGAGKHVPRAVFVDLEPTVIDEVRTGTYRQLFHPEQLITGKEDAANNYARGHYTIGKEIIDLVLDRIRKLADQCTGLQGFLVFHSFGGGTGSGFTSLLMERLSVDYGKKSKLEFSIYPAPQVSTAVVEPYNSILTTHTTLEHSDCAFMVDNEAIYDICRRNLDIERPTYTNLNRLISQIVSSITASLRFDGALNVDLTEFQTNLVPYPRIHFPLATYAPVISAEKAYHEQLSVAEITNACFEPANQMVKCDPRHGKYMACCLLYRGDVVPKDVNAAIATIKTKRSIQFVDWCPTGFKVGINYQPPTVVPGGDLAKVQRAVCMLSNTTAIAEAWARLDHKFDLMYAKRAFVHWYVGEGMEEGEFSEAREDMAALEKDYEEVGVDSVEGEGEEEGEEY
Description: Tubulin assays. The tubulin polymerizion and colchicine binding experiments were performed as described previously (See: Verdier-Pinard, P.; Lai, J -Y.; Yoo, H -D.; Yu, J.; Marquez, B.; Nagle, D. G.; Nambu, M.; White, J. D.; Falck, J. R; Gerwick, W. H.; Day, B. W.; Hamel, E. Mol. Pharmacol. 1998, 53, 62-76). However, in the polymerization assays Beckman DU7400/7500 spectrophotometers equipped with “high performance” temperature controllers were used. […] Temperature changes were, however, more rapid, with the jump from the lower temperature to 30EC taking about 20 sec and the reverse jump about 100 sec.

[9] = tested on: Neisseria gonorrhoeae; assay: Disk susceptibility testing; format: cell-based
Excerpt: (§1) Antimicrobial susceptibility testing. […] Eur. J. Med. Chem. 1998, 33, 71-77).

[10] = tested on: Staphylococcus aureus; assay: Disk susceptibility testing; format: cell-based
Excerpt: as §1

[11] = tested on: colchicine binding; conditions: at equal concentrations; cited from earlier work
[12] = tested on: solid tumors; conditions: cited from earlier work
[13] = tested on: Streptococcus pneumoniae; assay: Disk susceptibility testing; format: cell-based
Excerpt: as §1

[14] = tested on: cancer cell growth; conditions: cited from earlier work; for activity as cancer cell growth inhibitors: initial finding
[15] = tested on: Stenotrophomonas maltophilia
Excerpt: as §1

[16] = tested on: Cryptococcus neoformans
Excerpt: as §1

[17] = tested on: Candida albicans
Excerpt: as §1

[18] = tested on: the ten bacteria and fungi tested; assay: Disk susceptibility testing, whole panel; format: cell-based; conditions: at 100 μg/disk
Excerpt: as §1

COc1cc([C@@H]2OCO[C@H]2c2ccc(OC)c(OP(=O)([O-])[O-])c2OP(=O)([O-])[O-])cc(OC)c1OC.[Na+].[Na+].[Na+].[Na+] [(S,S)-21, Tetrasodium-(4S,5S)-4-(2′,3′-O-diphosphonate-4′-methoxyphenyl)-5-(3″,4″,5″-trimethoxyphenyl)-1,3-dioxolane]
GI50 [1]: > 10 µg/mL
GI50 [2]: 2.9 µg/mL
GI50 [3]: > 10 µg/mL
GI50 [4]: 2.6 µg/mL
GI50 [5]: 3.4 µg/mL
solubility [6]: > 35 mg/mL
GI50 [7]: 3.2 µg/mL

COc1ccc(/C=C\c2cc(OC)c(OC)c(OC)c2)c(O)c1O [Compound 1a, combretastatin A-1, reference compound]
inhibition at 1 µM [8]: 89 ± 3%
inhibition at 5 µM [8]: 99.6%
Minimum inhibitory Concentration [9]: 25-50 μg/disk
Minimum inhibitory Concentration [10]: 50-100 μg/disk
inhibition of colchicine binding [11]: ~99%
degree of reduction, vascular shutdown within solid tumors [12]: 50%

COc1ccc(/C=C\c2cc(OC)c(OC)c(OC)c2)cc1O [Compound 1b, combretastatin A-4]
degree of reduction, vascular shutdown within solid tumors [12]: 70%

COc1ccc(/C=C\c2cc(OC)c(OC)c(OC)c2)cc1OP(=O)([O-])[O-].[Na+].[Na+] [Compound 1d]
vascular shutdown within metastatic tumors ([12]; doses one-tenth of the maximum tolerated dose): complete vascular shutdown

COc1ccc(/C=C/c2cc(OC)c(OC)c(OC)c2)c(O)c1O [Compound 2b, E-combretastatin A-1]
Minimum inhibitory Concentration [13]: 50-100 μg/disk
Minimum inhibitory Concentration [9]: 6.25-12.5 μg/disk
activity as cancer cell growth inhibitors [14]: moderately active
Minimum inhibitory Concentration [15]: 50-100 μg/disk
Minimum inhibitory Concentration [16]: 50-100 μg/disk
Minimum inhibitory Concentration [17]: 50-100 μg/disk

COc1ccc(/C=C/c2cc(OC)c(OC)c(OC)c2)cc1O [Compound 2d]
activity as cancer cell growth inhibitor ([14]; freshly prepared solutions in dimethyl sulfoxide): inactive
activity as cancer cell growth inhibitors [14]: moderately active
Microbe(s) inhibited, whole panel [18]: * (at 100 μg/disk, no inhibition of the ten bacteria and fungi tested)
